According to publication PMC4409337, “Immucillins Impair Leishmania (L.) infantum chagasi and Leishmania (L.) amazonensis Multiplication In Vitro” (PLoS ONE, 2015):
Like-named read-outs stand apart in the source and are kept apart here.

Columns and labels:
[1] = system: Nucleoside hydrolase NH36 of L. (L.) donovani; format: biochemical, Leishmania (L.) donovani; settings: substrate of NH36; for k cat /K m: catalytic efficiency; for K m / k cat: 25°C, 50 mM Hepes pH 7.4
Protocol: (§1) BL21DE3 E.coli were transformed with the synthetic plasmid pET 28b encoding the gene of NH36 of Leishmania (L.) donovani (EMBL, Genbank and DDJB data bases, access number AY007193) with a His6tag at the C-terminal. Expression was induced with 0.5 mM IPTG and overnight incubation at 20°C. Purification of NH36 was performed on a column of Ni-NTA Superflow resin (Qiagen, USA) eluted by a stepwise imidazole gradient and monitored by SDS-polyacrylamide gel electrophoresis and protein assay. The extinction coefficient of NH36 is 21.437 mM^-1 cm^-1 at 280 nm, as calculated with the ProtParam program from ExPASy, and was used to estimate protein concentration (http://ca.expasy.org/seqanalref/). The yield of NH36 after purification was 11.87 mg per Liter of bacterial growth culture. Non-specific His-proteins with weak interactions were eluted with 50–100 mM imidazole (S1 Fig). The purified NH36 started to elute with 150 mM imidazole. We used 250 mM of imidazol in elution buffer for purification of NH36.
Steady-state kinetic rates for NH36 were determined on the substrates inosine, guanosine, adenosine, uridine and cytidine. Hypoxanthine and adenine formation were coupled to xanthine oxidase (12.9 mM^-1 cm^-1 at 293 nm and 15.2 mM^-1 cm^-1 at 305 nm, respectively), and the others were followed by direct uv absorbance changes resulting from cleavage of the N-ribosidic bond. Reaction mixtures contained 50 mM Hepes (pH 7.4), 100 mM NaCl and 5 mM of DTT. One unit, and 0.1 unit of xanthine oxidase (XOD) were used as the coupling enzyme to the adenosine and inosine assays, respectively. Spectral changes for hydrolysis of guanosine, uridine and cytidine were 5.4 mM^-1 cm^-1 at 257 nm,1.8 mM^-1 cm^-1 at 280 nm and 1.8 mM^-1 cm^-1 at 288 nm, respectively. Variable concentrations of substrate and appropriate amounts of purified NH36 were added in all assays. The hydrolysis of nucleosides to bases and ribose was followed by continuous recording of optical absorbance after addition of the enzyme, in a CARY 300 UV-visible spectrophotometer. Control rates with no enzyme addition were subtracted from initial rates. Reactions with substrates were conducted at 25°C using 1 cm path length cuvettes containing 1 mL reaction volumes. Kinetic parameters of NH36 were obtained by fitting initial rates to the Michaelis−Menten equation using GraFit 5 (Erithacus Software).

[2] = system: nucleoside hydrolase from Leishmania (L.) donovani; set-up: method as in PMID 11738828; settings: NH cloned in pET-22; cited from earlier work
NH of L. (L.) major = system: NH of L. (L.) major; set-up: method as in PMID 10409664; settings: ref 13; cited from earlier work
[3] = molecular target: T1, Nucleoside hydrolase NH36 (Leishmania donovani, UniProt Q8WQX2); assay: Ki determination: inhibition of NH36 activity by immucillins; format: biochemical, Leishmania (L.) donovani; settings: 10 mM inosine as substrate, 0.5 nM NH36, pH 7.4, room temperature
T1 sequence (Q8WQX2 1-314): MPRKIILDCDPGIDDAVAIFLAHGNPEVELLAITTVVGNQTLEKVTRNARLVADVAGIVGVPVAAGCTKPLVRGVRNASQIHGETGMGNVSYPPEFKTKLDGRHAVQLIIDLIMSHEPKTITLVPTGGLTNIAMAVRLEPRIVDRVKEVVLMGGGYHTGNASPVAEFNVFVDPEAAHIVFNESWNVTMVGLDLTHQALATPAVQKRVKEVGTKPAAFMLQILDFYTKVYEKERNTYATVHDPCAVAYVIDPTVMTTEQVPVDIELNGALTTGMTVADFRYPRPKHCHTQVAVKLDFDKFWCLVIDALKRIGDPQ
Protocol: as §1
The reaction mixtures contained 10 mM inosine as substrate, 50 mM Hepes (pH 7.4), 100 mM KCl, 5 mM DTT and 1 unit XOD. The hydrolysis of inosine to hypoxanthine and ribose was followed by continuous reading of optical absorbance at 293 nm, using variable concentrations of inhibitors in a CARY 300UV-visible spectrophotometer. Controls without enzyme and without inhibitors were included in all inhibition assays. The inhibition constant for each immucillin was obtained, using GraFit 5 (Erithacus Software), by fitting initial rates with variable inhibitor concentrations to the equation (vi/v0 = [S] / Km + [S] + Km[I] / Ki), where v i is the initial rate in the presence of the inhibitor, v 0 is the initial rate in the absence of the inhibitor, K m is the Michaelis constant for inosine, [S] and [I] are inosine and inhibitor concentrations, respectively, and Ki is the inhibition constant.

[4] = system: L. (L.) infantum chagasi promastigotes; assay: In vitro growth of promastigotes in FBS supplemented Schneider's insect medium; format: cell-based, Leishmania (L.) infantum chagasi
From the text: The strain of Leishmania (L.) infantum chagasi MHOM/BR/1974/PP75 was obtained from the Leishmania Type Culture Collection (Fundacão Oswaldo Cruz, Rio de Janeiro, RJ, Brazil) and the strain of Leishmania (L.) amazonensis (MHOM/BR/1975/Josefa) was kindly given by Professor Rosâ[…] from Universidade Federal do Rio de Janeiro. Promastigotes were maintained by weekly transfers in screw-capped glass tubes containing Schneider's insect medium (Sigma Aldrich, MO, USA), pH 7.0, supplemented with 10% Fetal Bovine Serum (FBS) at 26°C. […] Log phase promastigotes of L. (L.) infantum chagasi and L. […] Promastigotes were recorded in a Neubauer chamber after 24, 48, 72 and 96 hours of incubation at 26°C. […] The concentration of adenosine in Schneider s insect serum supplemented medium was assessed by HPLC using a C-18 reverse-phase column as described.

[5] = system: L. (L.) amazonensis promastigotes; assay: as above; format: cell-based, Leishmania (L.) amazonensis; settings: Leishmania amazonensis; for inhibition at 500 µM: read-out: percent inhibition on L. (L.) amazonensis replication; for IC50: read-out: IC50 (CI 95%) on L. (L.) amazonensis promastigotes in vitro growth
From the text: The strain of Leishmania (L.) infantum chagasi MHOM/BR/1974/PP75 was obtained from the Leishmania Type Culture Collection (Fundacão Oswaldo Cruz, Rio de Janeiro, RJ, Brazil) and the strain of Leishmania (L.) amazonensis (MHOM/BR/1975/Josefa) was kindly given by Professor Rosâ[…] from Universidade Federal do Rio de Janeiro. Promastigotes were maintained by weekly transfers in screw-capped glass tubes containing Schneider's insect medium (Sigma Aldrich, MO, USA), pH 7.0, supplemented with 10% Fetal Bovine Serum (FBS) at 26°C. Stock solutions (20 mM) of immucillins IA […] prepared using Milli-Q purified water. Log phase promastigotes of L. (L.) infantum chagasi and L. […] Promastigotes were recorded in a Neubauer chamber after 24, 48, 72 and 96 hours of incubation at 26°C. […] We also assayed the possibility of reversing the inhibitory effect of IA in RPMI medium by the addition of adenosine to the culture medium. The concentration of adenosine in Schneider s insect serum supplemented medium was assessed by HPLC using a C-18 reverse-phase column as described.

[6] = system: L. (L.) infantum chagasi promastigotes; assay: Transmission electron microscopy of treated promastigotes; format: cell-based, Leishmania (L.) infantum chagasi; settings: 10 μM, 72 h
From the text: The cells were washed with Milli Q water, dehydrated in increasing concentration of acetone and embedded in Epon (1: 1) (PolyBed 812). The ultrathin sections were obtained, contrasted with 5% uranyl acetate and lead citrate and observed under a Joel 1200 electron microscope.

[7] = Macrophage viability and cytotoxicity (Trypan Blue); settings: female, BALB/c, mouse
Protocol: (§2) Alternatively, the immucillins were added at 0, 24 and 48 h and viability assessed after 72h. […] The amastigote growth was assessed 24 h after the last drug addition, on 200 cells in Giemsa stained coverslips and expressed as phagocytic index = percent of infected macrophages x average number of intracellular amastigotes. […] All experiments with mice were reviewed and approved by the Animal Care and Use Committee of the Instituto de Biofísica Carlos Chagas Fo.-UFRJ (CAUAP-CONCEA, Brazil, IMPPG-016) and were performed according to the guidelines of the National Institutes of Health, USA. We made all efforts in order to minimize animal suffering.

[8] = system: intracellular amastigotes of L. (L.) infantum chagasi; assay: Replication of intracellular amastigotes in infected peritoneal macrophages (phagocytic index); format: cell-based, Leishmania (L.) infantum chagasi; settings: for EC50: read-out: EC50 (CI 95%); for decrease of intracellular amastigote parasite load: low micromolar concentrations, single to daily protocol
Protocol: as §2, with “Alternatively, the immucillins were added at 0, 24 and 48 h and viability assessed after 72h.” left out

[9] = system: strains of L. (L.) infantum chagasi; set-up: method as in PMID 23747751; settings: cited from earlier work
[10] = system: intracellular amastigotes of L. (L.) infantum chagasi; settings: cited from earlier work
[11] = system: amastigotes of L. (L.) amazonensis; set-up: method as in PMID 18660990; settings: ref 43; read-out: IC50 against amastigotes; cited from earlier work
[12] = 10 μM added daily at 0, 24 and 48 h
[13] = single 10 μM dose at 0 h, compared to untreated controls

With O=c1ccn([C@@H]2O[C@H](CO)[C@@H](O)[C@H]2O)c(=O)[nH]1 [Uridine] the “k cat /K m” value [1] was 16000 M⁻¹ s⁻¹, the K m [1] was 2,100 ± 561 μM and the k cat [1] was 34.3 ± 4.2 s ^-1. For the same molecule, the k cat [2] was 9.5 s⁻¹ and the k cat (NH of L. (L.) major) was 32 s⁻¹.
In the case of O=c1[nH]cnc2c(CNC(CO)CO)c[nH]c12 [SMIH], the Ki [3] is reported as > 5 µM, the IC50 ([4]; Leishmania infantum, drugs added at 0, 24 and 48 h, after 48h, read-out: IC50 on promastigote growth, daily addition) is reported as 1 nM and the IC50 ([4]; Leishmania infantum, drugs added at 0, 24 and 48 h, at 72 and 96 h, read-out: IC50 on promastigote growth, daily addition) is reported as < 0.01 nM. For the same molecule, the IC50 ([4]; Leishmania infantum, single addition at 0 h, evaluated after 48 hours, 26°C, read-out: IC50 (CI 95%) on L. (L.) infantum chagasi promastigotes in vitro growth) was 8 nM, the inhibition at 0.05 µM ([4]; Leishmania infantum, 50 nM, after 96 h of culture, read-out: percent inhibition on L. (L.) infantum chagasi promastigote growth) was 99% and the “reduction of the IC50 by daily addition compared to single addition” value ([4]; daily addition (0, 24, 48 h) vs single addition (Table 2), 48 h) was 88%. The inhibition at 0.05 µM ([5]; 50 nM, after 96 h of culture, read-out: percent growth inhibition on L. (L.) amazonensis) was 61%, the inhibition at 500 µM ([5]; 500 μM, after 96 h of culture) was 71% and the IC50 ([5]; single addition at 0 h, evaluated after 48 hours, 26°C) was 0.007 µM. For the same molecule, the “effect on cellular ultrastructure of promastigotes” value [6] was “complete alteration of their cellular morphology with intense cytoplasm vacuolization, enlarged vesicles and alterations in the kinetoplasts”, the CC50 at 48 h ([7]; peritoneal macrophages) was 800 µM and the “reduction in the number of intracellular amastigotes” value (“reduction in the number” for short) [8, 12] was 95%. The EC50 ([8]; Leishmania infantum, Peritoneal macrophage, drugs (0.5–10 μM) added at 0 h, incubation 24 h, linear interpolation) was 7.1 µM, the “decrease of intracellular amastigote parasite load” value [8] was 74–95% and the “reduction in the number” value [8, 13] was 70%.
In the case of O=c1[nH]cnc2c1ncn2[C@@H]1O[C@H](CO)[C@@H](O)[C@H]1O [Inosine], the “k cat /K m” value [1] is reported as 31800 M⁻¹ s⁻¹, the K m [1] is reported as 340 ± 30 µM and the k cat [1] is reported as 10.8 ± 0.3 s ^-1. For the same molecule, the k cat [2] was 7.6 s⁻¹ and the k cat (NH of L. (L.) major) was 119 s⁻¹.
Molecule O=c1[nH]cnc2c([C@@H]3N[C@H](CO)[C@@H](O)[C@H]3O)c[nH]c12 [IH] has a Ki [3] of 0.019 µM, an IC50 ([4]; Leishmania infantum, read-out: IC50 (CI 95%) on L. (L.) infantum chagasi promastigotes in vitro growth, single addition at 0 h, evaluated after 48 hours, 26°C) of 30600 nM and an IC50 ([4]; Leishmania infantum, read-out: IC50 on promastigote growth, daily addition, drugs added at 0, 24 and 48 h, after 48h) of 6700 nM. For the same molecule, the IC50 ([4]; Leishmania infantum, read-out: IC50 on promastigote growth, daily addition, drugs added at 0, 24 and 48 h, at 72 and 96 h) was < 50 nM, the inhibition at 500 µM ([5]; 96 h) was 71% and the IC50 [5] was 49.7 µM. The “effect on cellular ultrastructure of promastigotes” value [6] was “alterations and swelling of kinetoplasts”, the CC50 at 48 h [7] was 950 µM and the “reduction in the number” value [8, 12] was 95%. The EC50 ([8]; Leishmania infantum, Peritoneal macrophage) was 3.69 µM, the “decrease of intracellular amastigote parasite load” value [8] was 74–95% and the “reduction in the number” value [8, 13] was 70%.
In the case of Glucantime, the EC50 ([8]; drugs (0.5–10 μM) added at 0 h, incubation 24 h, linear interpolation) is given as 7.1 µM, the “reduction in the number” value [8, 13] is given as 70% and the IC50 ([9]; Leishmania strains isolated from dogs) is given as 20000 to 32300 µM. The IC50 ([9]; human strains of L. (L.) infantum chagasi) was 430 to 5760 µM, the IC50 ([10]; ref 43, read-out: IC50 against replication of amastigotes) was 348 µM and the IC50 ([10]; ref 44, read-out: IC50 against intracellular amastigotes) was 1420 µM. The IC50 ([10]; ref 45, read-out: IC50 against intracellular amastigotes) was 31.1 µM and the IC50 [11] was 62.6 µM.
